“And” between values parts separate entries of the source, which are not always exact repeats. Identical values can stand only once.
Tests used:
LOX2 [1] = target: T1, LOX2 (Arabidopsis thaliana, UniProt P38418); set-up: made in house; host or cells: E. coli Nico21(DE3), pET15b; method as in PMID 18949503; conditions: cited from earlier work
T1 sequence (P38418 71-896): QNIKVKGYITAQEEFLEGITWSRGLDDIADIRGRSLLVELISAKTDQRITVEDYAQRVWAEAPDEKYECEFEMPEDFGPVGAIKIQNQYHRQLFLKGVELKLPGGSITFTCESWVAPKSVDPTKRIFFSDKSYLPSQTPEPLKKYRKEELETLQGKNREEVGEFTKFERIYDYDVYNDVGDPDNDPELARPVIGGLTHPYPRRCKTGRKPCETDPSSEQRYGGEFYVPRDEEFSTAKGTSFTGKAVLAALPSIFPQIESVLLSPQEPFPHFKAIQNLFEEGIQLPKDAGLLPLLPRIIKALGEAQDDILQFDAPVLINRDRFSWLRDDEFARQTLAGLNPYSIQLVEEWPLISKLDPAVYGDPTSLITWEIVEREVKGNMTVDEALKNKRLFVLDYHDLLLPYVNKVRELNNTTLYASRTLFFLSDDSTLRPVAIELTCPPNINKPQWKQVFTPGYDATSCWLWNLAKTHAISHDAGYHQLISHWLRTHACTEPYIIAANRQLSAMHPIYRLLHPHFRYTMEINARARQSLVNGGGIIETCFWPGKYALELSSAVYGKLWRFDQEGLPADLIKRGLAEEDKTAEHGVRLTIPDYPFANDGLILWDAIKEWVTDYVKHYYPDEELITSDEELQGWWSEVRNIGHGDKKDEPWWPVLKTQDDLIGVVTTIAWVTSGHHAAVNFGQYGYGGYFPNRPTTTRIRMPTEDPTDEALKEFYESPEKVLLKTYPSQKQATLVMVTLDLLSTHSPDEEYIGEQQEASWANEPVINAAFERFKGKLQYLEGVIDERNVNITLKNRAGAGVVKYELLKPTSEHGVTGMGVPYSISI

LOX2 [2] = target: T1, LOX2; test: LOX2 activity, spectrophotometric (conjugated diene formation at 234 nm); conditions: substrate specificity; 31 µM PUFA, 4 µg 13-LOX, 50 mM Tris-HCl pH 7.2; LeA = 100%
LOX3 [3] = target: T2, LOX3 (Arabidopsis thaliana, UniProt Q9LNR3); test: LOX3 activity, spectrophotometric (conjugated diene formation at 234 nm); conditions: for Relative Activity (%) LOX3: substrate specificity, 31 µM PUFA, 4 µg 13-LOX, 50 mM Tris-HCl pH 7.2, LeA = 100%
T2 sequence (Q9LNR3 71-919): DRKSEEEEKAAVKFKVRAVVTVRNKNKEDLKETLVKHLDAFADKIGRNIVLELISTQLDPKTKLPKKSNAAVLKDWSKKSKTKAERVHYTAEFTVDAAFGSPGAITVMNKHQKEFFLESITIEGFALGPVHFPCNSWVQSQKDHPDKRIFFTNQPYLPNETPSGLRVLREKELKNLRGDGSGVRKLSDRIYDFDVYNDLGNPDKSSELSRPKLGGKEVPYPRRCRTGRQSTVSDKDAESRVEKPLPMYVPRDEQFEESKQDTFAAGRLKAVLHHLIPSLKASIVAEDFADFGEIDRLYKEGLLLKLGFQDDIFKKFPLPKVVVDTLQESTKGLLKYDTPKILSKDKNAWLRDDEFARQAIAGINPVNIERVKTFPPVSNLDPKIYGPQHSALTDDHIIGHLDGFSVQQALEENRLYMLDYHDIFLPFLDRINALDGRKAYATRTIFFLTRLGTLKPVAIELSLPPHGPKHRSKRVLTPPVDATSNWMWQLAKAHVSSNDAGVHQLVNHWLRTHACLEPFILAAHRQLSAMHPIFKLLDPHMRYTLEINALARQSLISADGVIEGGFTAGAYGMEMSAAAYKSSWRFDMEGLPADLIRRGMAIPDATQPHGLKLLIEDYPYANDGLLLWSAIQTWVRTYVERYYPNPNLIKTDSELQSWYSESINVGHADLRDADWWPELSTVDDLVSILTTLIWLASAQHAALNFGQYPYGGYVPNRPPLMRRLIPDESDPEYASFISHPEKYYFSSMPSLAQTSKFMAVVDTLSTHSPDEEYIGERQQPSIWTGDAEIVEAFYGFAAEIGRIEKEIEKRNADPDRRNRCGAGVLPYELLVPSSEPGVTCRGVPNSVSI

LOX4 [4] = target: T3, LOX4 (Arabidopsis thaliana, UniProt Q9FNX8); test: LOX4 activity, spectrophotometric (conjugated diene formation at 234 nm); conditions: for Relative Activity (%) LOX4: substrate specificity, 31 µM PUFA, 4 µg 13-LOX, 50 mM Tris-HCl pH 7.2, LeA = 100%
T3 sequence (Q9FNX8 71-926): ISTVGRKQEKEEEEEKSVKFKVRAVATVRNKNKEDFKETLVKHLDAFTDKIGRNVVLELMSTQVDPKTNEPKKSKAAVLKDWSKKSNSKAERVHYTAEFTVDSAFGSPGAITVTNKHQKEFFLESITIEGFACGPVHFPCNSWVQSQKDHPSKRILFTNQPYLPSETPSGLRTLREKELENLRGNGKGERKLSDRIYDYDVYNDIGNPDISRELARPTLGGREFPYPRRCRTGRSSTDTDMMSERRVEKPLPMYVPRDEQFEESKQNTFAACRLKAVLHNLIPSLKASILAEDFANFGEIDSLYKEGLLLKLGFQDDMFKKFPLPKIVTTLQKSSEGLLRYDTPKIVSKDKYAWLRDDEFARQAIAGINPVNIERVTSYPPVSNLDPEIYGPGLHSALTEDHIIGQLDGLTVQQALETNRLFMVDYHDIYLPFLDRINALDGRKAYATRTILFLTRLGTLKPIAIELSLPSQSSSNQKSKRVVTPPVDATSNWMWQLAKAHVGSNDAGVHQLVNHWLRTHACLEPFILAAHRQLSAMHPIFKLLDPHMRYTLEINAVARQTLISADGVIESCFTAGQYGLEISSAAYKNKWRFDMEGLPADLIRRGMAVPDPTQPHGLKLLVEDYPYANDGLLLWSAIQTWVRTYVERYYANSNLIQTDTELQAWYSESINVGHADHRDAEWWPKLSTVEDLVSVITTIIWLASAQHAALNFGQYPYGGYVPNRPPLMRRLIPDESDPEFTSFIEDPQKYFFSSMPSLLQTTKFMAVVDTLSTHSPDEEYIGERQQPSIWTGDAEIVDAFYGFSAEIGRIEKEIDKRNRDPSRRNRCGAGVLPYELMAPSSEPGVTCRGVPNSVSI

LOX6 [5] = target: T4, LOX6 (Arabidopsis thaliana, UniProt Q9CAG3); test: LOX6 activity, spectrophotometric (conjugated diene formation at 234 nm); conditions: for Relative Activity (%) LOX6: substrate specificity, 31 µM PUFA, 4 µg 13-LOX, 50 mM Tris-HCl pH 7.2, LeA = 100%
T4 sequence (Q9CAG3 41-917): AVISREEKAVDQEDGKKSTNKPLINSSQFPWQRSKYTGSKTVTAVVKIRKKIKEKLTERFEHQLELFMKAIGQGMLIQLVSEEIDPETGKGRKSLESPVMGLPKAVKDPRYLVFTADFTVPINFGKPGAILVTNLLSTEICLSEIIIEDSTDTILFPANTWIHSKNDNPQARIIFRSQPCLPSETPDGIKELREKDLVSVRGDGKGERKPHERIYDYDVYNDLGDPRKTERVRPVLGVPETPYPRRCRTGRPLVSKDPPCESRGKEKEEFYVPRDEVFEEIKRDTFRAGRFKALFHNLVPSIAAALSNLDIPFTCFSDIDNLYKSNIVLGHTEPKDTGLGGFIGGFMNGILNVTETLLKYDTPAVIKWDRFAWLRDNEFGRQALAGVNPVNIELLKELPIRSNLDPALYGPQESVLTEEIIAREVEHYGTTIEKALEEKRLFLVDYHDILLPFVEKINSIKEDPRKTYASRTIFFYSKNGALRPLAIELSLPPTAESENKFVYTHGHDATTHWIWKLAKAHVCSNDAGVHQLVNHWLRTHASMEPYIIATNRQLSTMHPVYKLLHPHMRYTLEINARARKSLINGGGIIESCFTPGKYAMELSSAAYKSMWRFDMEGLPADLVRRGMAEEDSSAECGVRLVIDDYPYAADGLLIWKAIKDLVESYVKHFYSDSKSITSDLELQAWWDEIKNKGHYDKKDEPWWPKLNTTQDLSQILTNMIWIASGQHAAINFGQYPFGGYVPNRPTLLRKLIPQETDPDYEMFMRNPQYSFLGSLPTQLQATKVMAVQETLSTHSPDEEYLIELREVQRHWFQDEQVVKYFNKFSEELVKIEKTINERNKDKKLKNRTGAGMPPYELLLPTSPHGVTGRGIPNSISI

LOX2 [6] = target: T1, LOX2; test: LOX2 activity, oxygen electrode (polarography); type: biochemical; set-up: made in house; host or cells: E. coli Nico21(DE3), pET15b; conditions: 100 µM metal salt, LeA 30 µM in 20 mM HEPES pH 8.0, oxygen consumption vs control
LOX3 [7] = target: T2, LOX3; test: LOX3 activity, oxygen electrode (polarography); type: biochemical; set-up: made in house; host or cells: E. coli Nico21(DE3), pET15b; conditions: 100 µM metal salt, LeA 30 µM in 20 mM HEPES pH 8.0, oxygen consumption vs control
LOX4 [8] = target: T3, LOX4; test: LOX4 activity, oxygen electrode (polarography); type: biochemical; set-up: made in house; host or cells: E. coli Nico21(DE3), pET15b; conditions: 100 µM metal salt, LeA 30 µM in 20 mM HEPES pH 8.0, oxygen consumption vs control
LOX6 [9] = target: T4, LOX6; test: LOX6 activity, oxygen electrode (polarography); type: biochemical; set-up: made in house; host or cells: E. coli Nico21(DE3), pEXP5-NT/TOPO; conditions: 100 µM metal salt, LeA 30 µM in 20 mM HEPES pH 8.0, oxygen consumption vs control
[10] = read-out: Inhibition after pre-incubation with PUFA

Compound	LOX2 activity with PUFA (relative) (LOX2 [1])	Relative Activity (%) LOX2 (LOX2 [2])	Relative Activity (%) LOX3 (LOX3 [3]) [%]	Relative Activity (%) LOX4 (LOX4 [4]) [%]	Relative Activity (%) LOX6 (LOX6 [5]) [%]	inhibition at 118 µM (LOX3 [3]; [10]) [%]	inhibition at 118 µM (LOX4 [4]; [10]) [%]	inhibition at 29 µM (LOX6 [5]; [10]) [%]	Relative Activity (%) LOX2 (LOX2 [6]) [%]	Relative Activity (%) LOX2 (LOX2 [6]; listed as Cu^2+)	Relative Activity (%) LOX3 (LOX3 [7])	Relative Activity (%) LOX3 (LOX3 [7]; listed as Cu^2+)	Relative Activity (%) LOX4 (LOX4 [8])	Relative Activity (%) LOX4 (LOX4 [8]; listed as Cu^2+)	Relative Activity (%) LOX6 (LOX6 [9])	Relative Activity (%) LOX6 (LOX6 [9]; listed as Cu^2+)
CCCCC/C=C\C/C=C\C/C=C\C/C=C\CCCC(=O)O [ARA, arachidonic acid]	~ 15%	50% and 50 ± 4%	5 ± 1	4 ± 1	8 ± 3											
CCCCC/C=C\C/C=C\CCCCCCCC(=O)O [LA, linoleic acid]	~ 40%	79% and 79 ± 7%	12 ± 1	11 ± 1	17 ± 1	> 50	> 50	> 50								
[Cl][Cu][Cl] [CuCl2]									50 ± 20	strongly decreased	no activity	abolished	no activity	abolished	no activity	abolished
CC/C=C\C/C=C\C/C=C\C/C=C\C/C=C\C/C=C\CCC(=O)O [DHA, docosahexaenoic acid]		56 ± 3%	7 ± 1	8 ± 1	31 ± 3											

Source: PMC8508710, “Biochemical Characterization of 13-Lipoxygenases of Arabidopsis thaliana” (International Journal of Molecular Sciences, 2021)
